“Also recorded” adds a separate entry of the source. Non-standard residues stand in square brackets, D forms with d. Residues, ends and D or L forms follow the SMILES beside them. *: point of attachment. αGalNAc = CC(=O)N[C@@H]1[C@@H](O)[C@@H](O)[C@@H](CO)O[C@@H]1*; Tyr(3,5-I2) = N[C@@H](Cc1cc(I)c(O)c(I)c1)C(=O)O; Acp = not defined here; Ahx = NCCCCCC(=O)O
Columns and labels:
[1] = tested on: high-fat induced obesity (DIO) C57BL/6 mice; experiment: Mouse model of obesity and leptin resistance (DIO mice); format: in vivo; conditions: for Blood glucose level / Blood total cholesterol level: DIO mice; for resistance to treatment (weight curves): 10-day ip treatment, leptin 0.1, compound (1) 0.02 and 0.1 mg/kg/day
Protocol: Animals were sacrificed by CO2 inhalation. Livers were removed and fixed in 10% buffered formaldehyde, pH, 7.4. After 24 hour fixation, liver specimens were dehydrated in graded ethanol and placed into methyl benzoate for an hour. The specimens were then transferred to xylene and embedded into paraffin. 6-μm thick paraffin sections were deparaffinized and stained with H&E. Photomicrographs were taken by using a Zeiss light microscope equipped with a CCD camera. The final magnification of the pictures was 200-fold.
An animal model for leptin resistance was used to evaluate compounds of the invention. In this model, based on high-fat induced obesity (DIO) of normal mice, the animals are fed with a diet containing 40-60% fat and become resistant to leptin treatment (Steinberg et al., 2006, Endocrinology 147: 3906-3914; Nakagawa et al., 2003, J. Obesity 27: 557-565). Normal C57BL/6 mice were fed with regular 6% lab chow until 3 weeks of age when their diet was switched to peanuts only. Peanuts have 47-50% dry fat content, and are considered a typical high-fat food (Isleib et al., 2004, J. Agric. Food Chem. 52: 3165-3168). DIO mice develop peripheral leptin resistance after 16 days of high-fat diet (van Heek et al., 1997, J. Clin. Invest. 99:3 85-390). In this study, the mice were fed peanuts for 5 weeks. The animals had access to water and peanuts ad libitum. After 3 weeks (total age 6 weeks) a group of 6 mice remained untreated, and 4 groups received leptin or a compound of the invention.
Mice were weighed daily and received a daily single dose (around noon time) intraperitoneally with the following scheme: Group 1 (6 mice: 3 males, 3 females) —physiological solution (control); Group 2 (6 mice: 3 males, 3 females) —0.1 mg/kg/day leptin; Group 3 (4 mice: 2 males, 2 females) —0.02 mg/kg/day compound of the invention; Group 4 (6 mice: 3 males, 3 females) —0.1 mg/kg/day compound of the invention; and Group 5 (4 mice: 2 males, 2 females) —0.5 mg/kg/day compound of the invention. After 10 days of treatment, one male and one female mouse from each group were sacrificed and bled, and their livers, spleens, kidneys and brains were removed for histology and toxicity analysis.
The DIO mice were allowed to eat peanut ad libitum. They were weighed daily and received the following intraperitoneal treatment at noontime: Group 1 (6 mice: 3 males, 3 females) —physiological solution (control); Group 2 (6 mice: 3 males, 3 females) —0.1 mg/kg/day of leptin; Group 3 (4 mice: 2 males, 2 females) —0.02 mg/kg/day of compound (1); Group 4 (6 mice: 3 males, 3 females) —0.1 mg/kg/day of compound (1); and Group 5 (4 mice: 2 males, 2 females) —0.5 mg/kg/day of compound (1).

obese C57BL/6 mice = experiment: Pregnancy test after treatment of obese mice; format: in vivo; conditions: for Number of pregnancy incidents: observed 5 weeks
From the text: The remaining mice after the treatment with leptin or a compound of the invention were returned to 6% fat lab chow diet, and locked into cages in couples. […] The two successful litters were examined for growth and behavioral patterns.
Upon cessation of the weight gain assay and laboratory work, the remaining mice were returned to 6% fat lab chow diet, and locked into cages in couples to investigate whether treatment with leptin or compound (1) improved their fertility rates. […] Neither of two couples of control, untreated mice produced litters, as expected (Table 3). […] Leptin treatment somewhat improved the situation because one of the two couples produced a litter. As for the couple of mice treated with the 0.5 mg/kg/day dose of compound (1), the female became pregnant immediately and delivered 6 healthy pups in less than a month (Table 3).

[2] = tested on: ObR-positive LN18 glioblastoma cells; experiment: Cell proliferation assay, LN18 glioblastoma cells; format: cell-based; conditions: data not shown
Protocol: (§1) LN18 and LN229 cells naturally expressing ObR were purchased from ATCC and were cultured in DMEM low glucose plus 5% fetal bovine serum.
(§2) Seventy percent confluent cultures of LN18 and LN229 cells were synchronized in serum-free medium (DMEM plus 10 μM FeSO4 and 0.5% bovine serum albumin—BSA) for 48 hours and then treated with leptin and/or compounds (different doses) for 3 days. Cell numbers before and after treatment were determined by direct counting the cells with trypan blue exclusion. All assays were done in triplicate and repeated 3-6 times. The cell numbers were expressed as means±standard error. The results were statistically evaluated by Student's t-test and analysis of variance (ANOVA). Values of p<0.05 were considered statistically significant.
(§3) Stimulation of ObR-positive cells by compound (1) was evaluated. A true agonist of an ObR-positive receptor should stimulate the growth of ObR-positive cells when added alone and should not antagonize the actions of leptin in the same cells. In order to determine whether compound (1) is a true agonist, the ObR-positive, CNS-resident glioblastoma cell lines LN229 and LN18 were used. EC values for this peptide were measured without exogenous leptin present, and IC values with 12 nM leptin added.

[3] = tested on: ObR-positive LN229 glioblastoma cells; experiment: Cell proliferation assay, ObR-positive LN229 glioblastoma cells; format: cell-based; conditions: for Selectivity (EC/IC): LN229 cells
Protocol: as §1, §2, §3

normal F344 male rats = experiment: Rat appetite control, intranasal administration to normal rats; format: in vivo; conditions: 0.1 mg/kg/day intranasal
Protocol: Eight 6-weeks-old male […] rats were kept on regular laboratory diet. At noon time for 10 days, the animals were weighed, turned upside down, and received 0.1 mg/kg/day of a compound of the invention ([…]) or physiological solution ([…]) dripped in 10 μL volume into their nose. On day 15, the rats were weighed and sacrificed (cervical dislocation), and bled for laboratory blood analysis. Their brains, livers, kidneys and spleens were removed and weighed.
Rats were allowed to lab chow ad libitum, and treatment lasted for 10 days with 0.1 mg/kg/day single dose of compound (1) dropped into the nose in 10 μL salt solution. Untreated control animals were administered 10 μL physiological salt solution. Results are represented in FIG. 5.

[4] = In vivo biodistribution of fluorescent-labelled peptide
Protocol: Compound (2), labeled with fluorescent dye Alexa Fluor® 680, was prepared and purified by reverse phase HPLC. 5 μg of the compound were injected intraperitoneally into anesthetized female Balb/c mice. While sleeping, the animals were placed into the fluorescence microscope chamber. Fluorescence exposure pictures were taken with a Kodak 4000MM camera set to 695 nm emission wavelength at five minute intervals afterwards for 80 min.

C57BL/6 mice = experiment: Short chronic toxicity study in peanut-fed mice; format: in vivo; conditions: 1.5 or 4.0 mg/kg ip once daily, 4 days
Protocol: Eight C57BL/6 mice, 6 weeks of age (8 mice: 4 males, 4 females), were fed with peanut diet for 6 days. They were split in three different groups. The first group was left untreated (4 mice: 2 males, 2 females). The second group received a compound of the invention once daily intraperitoneally at 1.5 mg/kg for 4 days (2 mice: 1 male, 1 female). The third group received a compound of the invention once daily intraperitoneally at 4.0 mg/kg (2 mice: 1 male, 1 female) for 4 days. The animals were inspected daily for signs of disease or discomfort. After 5 days of treatment, the mice were weighed, sacrificed with CO2 inhalation, and bled for laboratory blood analysis. Their brains, livers, kidneys and spleens were inspected, removed and weighed.
Eight mice (4 males, 4 females) were fed with peanut diet for 6 days. After that, they were left untreated (2 males, 2 females), or received compound (1) once daily at 1.5 mg/kg (1 male, 1 female) or 4.0 mg/kg (1 male, 1 female) for 4 days.

[5] = 5 μg intraperitoneally, fluorescence imaging

With `CC(=O)N[C@H]1[C@@H](O[C@H](C)[C@H](NC(=O)[C@H](CO)NC(=O)[C@@H](N)Cc2cc(I)c(O)c(I)c2)C(=O)N[C@@H](CCC(=O)O)C(=O)N[C@H](C(=O)N[C@H](C(=O)N[C@@H](C)C(=O)N[C@@H](CC(C)C)C(=O)N[C@@H](CO)C(=O)N[C@@H](CCCNC(=N)N)C(=O)NCCCCCC(N)=O)C(C)C)C(C)C)O[C@H](CO)[C@H](O)[C@@H]1O` [compound (1), Tyr(I2)-Ser-Thr(α-GalNAc)-Glu-Val-Val-Ala-Leu-Ser-Arg-AcpNH2] (H-[Tyr(3,5-I2)]ST(αGalNAc)EVVALSR[Ahx]-NH2; N-terminus assumed) the “weight reduction relative to untreated controls at end of treatment” value ([1]; 0.02 mg/kg/day ip, 10 days) was 0.5 g, the Blood glucose level ([1]; 0.02 mg/kg/day ip) was 8.45 mM/L and the “Blood total cholesterol level” value ([1]; 0.02 mg/kg/day ip) was 2.51 mM/L. For the same compound, the “weight reduction relative to untreated controls at end of treatment” value ([1]; 0.1 mg/kg/day ip, 10 days) was 0.6 g, the Blood glucose level ([1]; 0.1 mg/kg/day ip) was 8.55 mM/L and the “Blood total cholesterol level” value ([1]; 0.1 mg/kg/day ip) was 2.77 mM/L. The “blood cholesterol level reduction” value ([1]; 0.5 mg/kg/day ip) was 9%, the glucose level reduction ([1]; 0.5 mg/kg/day ip) was 17% and the “liver fat cell content (histology)” value ([1]; 0.5 mg/kg/day ip) was “fatty cytoplasm could no longer be observed; also recorded: fat cells were completely eliminated from the liver”. The “net total body weight loss” value ([1]; 0.5 mg/kg/day ip, 10 days) was 6.5%, the “relative weight loss compared to untreated mice” value ([1]; 0.5 mg/kg/day ip, 10 days) was 1.3 g and the Blood glucose level ([1]; 0.5 mg/kg/day ip) was 7.06 mM/L. For the same compound, the “Blood total cholesterol level” value ([1]; 0.5 mg/kg/day ip) was 2.08 mM/L, the “liver fat cell content, dose dependence” value ([1]; 0.02, 0.1 and 0.5 mg/kg/day ip) was “lowered the fatty cell content of the liver in a dose-dependent manner” and the “resistance to treatment (weight curves)” value [1] was “lack of resistance to peptide treatment”. For the same compound, the “Number of pregnancy incidents” value (obese C57BL/6 mice; after 0.02 mg/kg/day ip) was 0, the “Number of pregnancy incidents” value (obese C57BL/6 mice; after 0.1 mg/kg/day ip) was 0 and the healthy pups delivered (obese C57BL/6 mice; after 0.5 mg/kg/day ip, one couple) was 6. For the same compound, the “Number of pregnancy incidents” value (obese C57BL/6 mice; after 0.5 mg/kg/day ip) was 1, the fertility of couples (obese C57BL/6 mice; low-dose regimen (0.02 and 0.1 mg/kg/day)) was “remained infertile” and the agonistic activity [2] was “picomolar agonistic activities”. The “Selectivity (EC/IC)” value [3] was >100, the “Selectivity (EC/IC)” value ([3]; listed as Compound (1)) was “greater than 100” and the IC100 ([3]; LN229 proliferation, with 12 nM leptin added) was >100 nM. The EC100 ([3]; LN229 proliferation, without exogenous leptin, 3 days) was <1 nM, the “Antagonistic properties (ICs) to leptin-induced LN229 stimulation” value ([3]; with 12 nM leptin added) was ≥ 100 nM and the “weight growth less than untreated controls” value (normal F344 male rats; 10 days, day 11) was 10.8 g. The “net total body weight (tbw) loss” value (normal F344 male rats; 10 days, day 14) was 6.8%, the “weight growth less than untreated controls” value (normal F344 male rats; 10 days, day 14) was 11.7 g and the “average total blood cholesterol level” value (normal F344 male rats; at sacrifice) was 1.28 mmol/L. For the same compound, the “organ weight, brain” value (normal F344 male rats; at sacrifice) was 1.2 g, the “organ weight, kidney” value (normal F344 male rats; at sacrifice) was 1.5 g and the “organ weight, liver” value (normal F344 male rats; at sacrifice) was 6.9 g. For the same compound, the “organ weight, spleen” value (normal F344 male rats; at sacrifice) was 0.42 g, the “BBB-penetrating ability, by inference from compound (2)” value ([4]; inferred from labelled analogue) was “good BBB-penetrating ability” and the “average organ weight, brain” value (C57BL/6 mice) was 0.3 g. The “average organ weight, kidney (females)” value (C57BL/6 mice) was 0.20 g, the “average organ weight, kidney (males)” value (C57BL/6 mice) was 0.25 g and the “average organ weight, liver” value (C57BL/6 mice) was 1.06 g. For the same compound, the “average organ weight, spleen” value (C57BL/6 mice) was 0.09 g, the gross necropsy (C57BL/6 mice) was “no signs of toxicity” and the “weight change during compound addition” value (C57BL/6 mice) was “Three of the 4 treated mice lost weight”.
For “Alexa680-Tyr(I2)-Ser-Thr(α-GalNAc)-Glu-Val-Val-Ala-Leu-Ser-Arg-AcpNH2 ({Alexa680-Tyr(3,5-I2)-Ser-Thr(α-GalNAc)}-EVVALSR-{Acp-NH2}; reading uncertain) [compound (2)]”, the BBB-penetrating ability [4, 5] was “good BBB-penetrating ability”, the “distribution into peptide elimination organs (kidneys, liver, spleen)” value [4, 5] was “distributed into the usual peptide elimination organs within one hour from administration” and the “presence in tail, limbs and brain” value [4, 5] was “also found in the tail, the limbs and the brain”.
For “leptin: Human leptin purchased from R&D Systems; 146-amino acid neurohormone, native ObR ligand”, the “liver fat cell content (histology)” value ([1]; 0.1 mg/kg/day ip) was “acinoperipheral regions of the liver still contained fat cells”, the “weight reduction relative to untreated controls at end of treatment” value ([1]; 0.1 mg/kg/day ip, 10 days) was 0.3 g and the Blood glucose level ([1]; 0.1 mg/kg/day ip) was 5.22 mM/L. For the same compound, the “Blood total cholesterol level” value ([1]; 0.1 mg/kg/day ip) was 2.47 mM/L, the “resistance to treatment (weight curves)” value [1] was “fast acquisition of resistance” and the “Number of pregnancy incidents” value (obese C57BL/6 mice; after 0.1 mg/kg/day ip) was 1.

Source: patent US8980843B2, “Leptin agonist and methods of use” (Temple University—of the Commonwealth System of Higher …, priority 2009, dated 2015)
